Assay [1] relates to dengue virus. Put plainly: In vitro dengue virus infection of Vero cells, viral RNA titer by qRT-PCR. Format: cell-based. The note with it: 40 μM, 48 hours after infection. On the procedure:
In order to evaluate the antiviral effect of irosustat in vitro, an additional experiment was performed in which Vero cells were infected with dengue virus. 16 hours before viral infection, cells were pre-treated with irosustat at a concentration of 0 μM, 20 μM or 40 μM, and 1 hour thereafter, the medium was replaced with a cell culture medium containing the drug. 48 hours after infection with the virus, the viral RNA titer of dengue virus in the cell culture medium was measured through qRT-PCR, and the results are shown in FIG. 3.
(In general: Quantitative PCR measures a nucleic acid by following its amplification.)

The subject of assay [2] is severe acute respiratory syndrome virus (SARS; SARS-CoV-2). The arrangement: species or system K18-ACE2 TG mice. The note with it: mouse, in vivo.

Results on 1 compound are retold here after patent publication US20240082208A1 (priority 2021, published 2024).

`NS(=O)(=O)Oc1ccc2c3c(c(=O)oc2c1)CCCCC3` [irosustat, (6-oxo-8,9,10,11-tetrahydro-7H-cyclohepta[c]chromen-3-yl)sulfamate]: the “decrease of virus titer” value in assay [1] is listed as not below 50%. The “viral titer in the lung tissue, lower than vehicle” value in assay [2] is “about 77%”.
